Data: PubChem BioAssay AID248 (DTP/NCI, 2004)
Several values for one entry are separate records, joined by “and”; a condition that tells them apart may be missing. Equal values may be shown once. Inconclusive results and toxic doses are left out. Rule as the data show it: active = T/C of 150% or more; inactive = T/C below 125%.

Test system: L1210 leukemia ip in BDF1 mice, survival T/C
Experiment: NCI In Vivo Anticancer Drug Screen. Data for tumor model L1210 Leukemia (intraperitoneal) in B6D2F1 (BDF1) mice
Conditions: endpoint: mean survival time, higher = longer survival
How it was run: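 Tumor was transplanted into mice, which were then dosed with test compound or vehicle alone. Survival was recorded for each group, and the treated figure was expressed relative to the control figure.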

[1] = dose: 100.0 mg/kg/injection, schedule: Q01DX009 (ip), vehicle: Klucel (hydroxypropylcellulose) (HPC)
[2] = dose: 200.0 mg/kg/injection, schedule: Q01DX009 (ip), vehicle: Klucel (hydroxypropylcellulose) (HPC)
[3] = dose: 400.0 mg/kg/injection, schedule: Q01DX009 (ip), vehicle: Klucel (hydroxypropylcellulose) (HPC)
[4] = dose: 50.0 mg/kg/injection, schedule: Q01DX001 (ip), vehicle: saline
[5] = dose: 100.0 mg/kg/injection, schedule: Q01DX001 (ip), vehicle: saline
[6] = dose: 100.0 mg/kg/injection, schedule: Q01DX009 (ip), vehicle: saline
[7] = dose: 100.0 mg/kg/injection, schedule: Q04DX003 (ip), vehicle: saline
[8] = dose: 200.0 mg/kg/injection, schedule: Q01DX001 (ip), vehicle: saline
[9] = dose: 200.0 mg/kg/injection, schedule: Q01DX009 (ip), vehicle: saline
[10] = dose: 200.0 mg/kg/injection, schedule: Q04DX003 (ip), vehicle: saline
[11] = dose: 400.0 mg/kg/injection, schedule: Q04DX003 (ip), vehicle: saline

Measured: T/C

COc1c(OCC=C(C)C)cc2c(c1O)c(=O)c1ccccc1n2C
inactive: dose: 100.0 mg/kg/injection, schedule: Q01DX001 (ip), vehicle: carboxymethylcellulose (CMC) 100 % of control | dose: 200.0 mg/kg/injection, schedule: Q01DX001 (ip), vehicle: carboxymethylcellulose (CMC) 93 % of control | dose: 400.0 mg/kg/injection, schedule: Q01DX001 (ip), vehicle: carboxymethylcellulose (CMC) 98 % of control

O=C1CC(c2ccc(Cl)cc2)NC(c2ccc(Cl)cc2)C1 (stereo not given)
inactive: dose: 100.0 mg/kg/injection, schedule: Q01DX009 (ip), vehicle: saline with Tween-80 101 % of control | dose: 100.0 mg/kg/injection, schedule: Q04DX003 (ip), vehicle: saline with Tween-80 93 % of control | dose: 200.0 mg/kg/injection, schedule: Q01DX009 (ip), vehicle: saline with Tween-80 101 % of control | dose: 200.0 mg/kg/injection, schedule: Q04DX003 (ip), vehicle: saline with Tween-80 96 % of control | dose: 400.0 mg/kg/injection, schedule: Q01DX009 (ip), vehicle: saline with Tween-80 103 % of control | dose: 400.0 mg/kg/injection, schedule: Q04DX003 (ip), vehicle: saline with Tween-80 98 % of control

CN=C(c1ccc(NC(=O)c2ccc(C(=O)Nc3ccc(C(=NC)N4CCCC4)cc3)cc2)cc1)N1CCCC1
inactive: dose: 0.5 mg/kg/injection, schedule: Q01DX Z (ip), vehicle: water 96 % of control | dose: 1.0 mg/kg/injection, schedule: Q01DX Z (ip), vehicle: water 96 % of control

Cc1cccc(Cl)c1NC(=S)Nc1cccc(C(F)(F)F)c1
inactive: [1] 102 % of control | [2] 102 % of control | [3] 96 % of control

C[n+]1ccccc1C=O
inactive: [4] 100 % of control | dose: 50.0 mg/kg/injection, schedule: Q01DX009 (ip), vehicle: saline 102 % of control and 103 % of control | dose: 50.0 mg/kg/injection, schedule: Q04DX003 (ip), vehicle: saline 98 % of control | [5] 100 % of control | [6] 104 % of control and 113 % of control | dose: 100.0 mg/kg/injection, schedule: Q04DX002 (ip), vehicle: saline 97 % of control and 105 % of control | [7] 88 % of control | [8] 103 % of control | [9] 102 % of control and 109 % of control | dose: 200.0 mg/kg/injection, schedule: Q04DX002 (ip), vehicle: saline 102 % of control and 105 % of control | [10] 107 % of control | dose: 400.0 mg/kg/injection, schedule: Q04DX002 (ip), vehicle: saline 101 % of control

C=CS(=O)(=O)CCCCCCCC
inactive: dose: 75.0 mg/kg/injection, schedule: Q01DX001 (ip), vehicle: saline 97 % of control | dose: 75.0 mg/kg/injection, schedule: Q04DX003 (ip), vehicle: other 92 % of control | dose: 150.0 mg/kg/injection, schedule: Q01DX001 (ip), vehicle: saline 89 % of control | dose: 150.0 mg/kg/injection, schedule: Q04DX003 (ip), vehicle: other 100 % of control | dose: 300.0 mg/kg/injection, schedule: Q01DX001 (ip), vehicle: saline 91 % of control | dose: 300.0 mg/kg/injection, schedule: Q04DX003 (ip), vehicle: other 89 % of control

[O-][n+]1ccnc2ccccc21
inactive: [7] 100 % of control | [10] 108 % of control | [11] 110 % of control

CCOC(=O)/C(C#N)=C\c1ccc(N(C)CCC#N)cc1
inactive: [1] 100 % of control | [2] 96 % of control | [3] 94 % of control

N#CC12CC3CC(CC(C3)C1)C2
inactive: dose: 5.0 mg/kg/injection, schedule: Q01DX009 (ip), vehicle: saline with Tween-80 104 % of control | dose: 10.0 mg/kg/injection, schedule: Q01DX009 (ip), vehicle: saline with Tween-80 98 % of control | dose: 20.0 mg/kg/injection, schedule: Q01DX001 (ip), vehicle: carboxymethylcellulose (CMC) 96 % of control | dose: 20.0 mg/kg/injection, schedule: Q01DX009 (ip), vehicle: saline with Tween-80 112 % of control | dose: 40.0 mg/kg/injection, schedule: Q01DX001 (ip), vehicle: carboxymethylcellulose (CMC) 95 % of control | dose: 80.0 mg/kg/injection, schedule: Q01DX001 (ip), vehicle: carboxymethylcellulose (CMC) 96 % of control

O=C1NC(=O)C2C(c3ccccc3)=NOC2N1 (stereo not given)
inactive: [1] 103 % of control | dose: 100.0 mg/kg/injection, schedule: Q04DX003 (ip), vehicle: Klucel (hydroxypropylcellulose) (HPC) 97 % of control | [2] 103 % of control | dose: 200.0 mg/kg/injection, schedule: Q04DX003 (ip), vehicle: Klucel (hydroxypropylcellulose) (HPC) 90 % of control | [3] 98 % of control | dose: 400.0 mg/kg/injection, schedule: Q04DX003 (ip), vehicle: Klucel (hydroxypropylcellulose) (HPC) 97 % of control

O=c1[nH]c2ncccc2c(=O)n1O
inactive: [4] 96 % of control | [5] 100 % of control | [1] 96 % of control | [8] 96 % of control | [2] 98 % of control | [3] 94 % of control

COc1cccc(NC(=S)Nc2ccccc2)c1
inactive: dose: 100.0 mg/kg/injection, schedule: Q04DX002 (ip), vehicle: Klucel (hydroxypropylcellulose) (HPC) 95 % of control | dose: 200.0 mg/kg/injection, schedule: Q04DX002 (ip), vehicle: Klucel (hydroxypropylcellulose) (HPC) 88 % of control | dose: 400.0 mg/kg/injection, schedule: Q04DX002 (ip), vehicle: Klucel (hydroxypropylcellulose) (HPC) 111 % of control

CC(O)C(C)(C)C(O)C(=O)NCCSc1ccc(Cl)cc1 (stereo not given)
inactive: dose: 100.0 mg/kg/injection, schedule: Q01DX001 (ip), vehicle: acetone 104 % of control | dose: 200.0 mg/kg/injection, schedule: Q01DX001 (ip), vehicle: acetone 104 % of control | dose: 400.0 mg/kg/injection, schedule: Q01DX001 (ip), vehicle: acetone 102 % of control

CC(C)(/C=N/N=C(N)N)CCC#N
inactive: dose: 60.0 mg/kg/injection, schedule: Q01DX Z (oral), vehicle: saline 98 % of control | dose: 120.0 mg/kg/injection, schedule: Q01DX Z (oral), vehicle: saline 109 % of control | dose: 240.0 mg/kg/injection, schedule: Q01DX Z (oral), vehicle: saline 103 % of control | dose: 480.0 mg/kg/injection, schedule: Q01DX Z (oral), vehicle: saline 94 % of control and 116 % of control

C[C@@]1(O)CCCC[C@H]1O
inactive: [6] 95 % of control | [7] 106 % of control | [9] 105 % of control | [10] 103 % of control | dose: 400.0 mg/kg/injection, schedule: Q01DX009 (ip), vehicle: saline 96 % of control | [11] 92 % of control

COc1ccc(C2OCC(CCl)O2)cc1 (stereo not given)
inactive: dose: 55.0 mg/kg/injection, schedule: Q01DX Z (ip), vehicle: methylcellulose (MC) 109 % of control | dose: 83.0 mg/kg/injection, schedule: Q01DX Z (ip), vehicle: methylcellulose (MC) 103 % of control | dose: 125.0 mg/kg/injection, schedule: Q01DX Z (ip), vehicle: methylcellulose (MC) 101 % of control

O=C1c2ccccc2C(=O)N1CCC[P+](c1ccccc1)(c1ccccc1)c1ccccc1
inactive: dose: 6.25 mg/kg/injection, schedule: Q01DX009 (ip), vehicle: saline with Tween-80 106 % of control | dose: 12.5 mg/kg/injection, schedule: Q01DX009 (ip), vehicle: saline with Tween-80 111 % of control | dose: 25.0 mg/kg/injection, schedule: Q01DX009 (ip), vehicle: saline with Tween-80 116 % of control and 120 % of control

CCCC(NC(=O)CCl)C(=O)O (stereo not given)
inactive: [7] 96 % of control | [10] 101 % of control
